In ChEMBL document CHEMBL1157707, “Lead optimization of N-3-substituted 7-morpholinotriazolopyrimidines as dual phosphoinositide 3-kinase/mammalian target of rapamycin inhibitors: discovery of PKI-402” (J Med Chem, 2010):
In brackets after ≈: the same amount, converted by molar mass.

Legend:
MDA-MB-361 = assay: cells; conditions: Homo sapiens, MDA-MB-361, 72 h
[1] = biological target: Serine/threonine-protein kinase mTOR (Homo sapiens, UniProt P42345); assay: Inhibition of mTOR by DELFIA
in vitro = conditions: rat
PC-3 = assay: cells; conditions: Homo sapiens, PC-3, 72 h
[2] = Solubility at pH 7.4; assay type: physicochemical; conditions: buffer
[3] = biological target: Phosphatidylinositol 4,5-bisphosphate 3-kinase catalytic subunit alpha isoform (Homo sapiens, UniProt P42336)
[4] = Solubility at pH 3; assay type: physicochemical; conditions: buffer
cells = conditions: Homo sapiens, MDA-MB-361, 4 h
[5] = Metabolic stability in mouse liver microsomes assessed as half life; assay type: ADME, Microsome
[6] = biological target: Phosphatidylinositol 4,5-bisphosphate 3-kinase catalytic subunit gamma isoform (Homo sapiens, UniProt P48736); assay: Inhibition of human PI3Kgamma by fluorescence polarization format assay
[7] = Inhibition of Akt T308 phosphorylation in human MDA-MB-361 cells by Western blotting; assay type: cell-based
[8] = Metabolic stability in human liver microsomes assessed as half life; assay type: ADME, Microsome

Chain of Phosphatidylinositol 4,5-bisphosphate 3-kinase catalytic subunit alpha isoform (P42336 whole entry, canonical isoform): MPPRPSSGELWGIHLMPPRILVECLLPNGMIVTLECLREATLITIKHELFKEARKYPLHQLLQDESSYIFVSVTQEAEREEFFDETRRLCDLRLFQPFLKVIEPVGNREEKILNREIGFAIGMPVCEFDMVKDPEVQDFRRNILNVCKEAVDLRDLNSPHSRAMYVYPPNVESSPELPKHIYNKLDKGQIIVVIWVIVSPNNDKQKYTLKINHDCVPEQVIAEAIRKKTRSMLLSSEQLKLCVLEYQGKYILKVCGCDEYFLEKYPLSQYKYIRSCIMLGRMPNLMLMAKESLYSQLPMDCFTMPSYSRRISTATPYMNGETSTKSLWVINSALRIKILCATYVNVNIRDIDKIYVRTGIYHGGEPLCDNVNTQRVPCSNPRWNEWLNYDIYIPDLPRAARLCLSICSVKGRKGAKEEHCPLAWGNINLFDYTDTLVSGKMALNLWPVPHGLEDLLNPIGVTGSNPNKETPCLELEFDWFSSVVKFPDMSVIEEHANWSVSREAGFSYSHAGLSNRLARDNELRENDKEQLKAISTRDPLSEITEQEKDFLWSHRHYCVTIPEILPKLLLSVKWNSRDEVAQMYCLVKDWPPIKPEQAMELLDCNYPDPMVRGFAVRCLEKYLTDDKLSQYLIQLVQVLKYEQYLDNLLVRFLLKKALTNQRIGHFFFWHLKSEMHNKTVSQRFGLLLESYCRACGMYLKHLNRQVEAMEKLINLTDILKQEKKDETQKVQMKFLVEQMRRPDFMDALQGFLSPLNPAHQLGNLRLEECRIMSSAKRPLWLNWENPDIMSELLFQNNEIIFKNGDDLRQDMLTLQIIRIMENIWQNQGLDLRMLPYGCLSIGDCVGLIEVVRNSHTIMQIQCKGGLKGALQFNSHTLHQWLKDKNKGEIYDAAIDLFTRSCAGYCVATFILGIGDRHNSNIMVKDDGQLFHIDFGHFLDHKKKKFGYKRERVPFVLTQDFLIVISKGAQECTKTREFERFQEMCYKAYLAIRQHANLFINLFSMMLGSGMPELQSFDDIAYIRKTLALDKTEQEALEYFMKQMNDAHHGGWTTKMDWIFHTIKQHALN
Chain of Phosphatidylinositol 4,5-bisphosphate 3-kinase catalytic subunit gamma isoform (P48736 whole entry, canonical isoform): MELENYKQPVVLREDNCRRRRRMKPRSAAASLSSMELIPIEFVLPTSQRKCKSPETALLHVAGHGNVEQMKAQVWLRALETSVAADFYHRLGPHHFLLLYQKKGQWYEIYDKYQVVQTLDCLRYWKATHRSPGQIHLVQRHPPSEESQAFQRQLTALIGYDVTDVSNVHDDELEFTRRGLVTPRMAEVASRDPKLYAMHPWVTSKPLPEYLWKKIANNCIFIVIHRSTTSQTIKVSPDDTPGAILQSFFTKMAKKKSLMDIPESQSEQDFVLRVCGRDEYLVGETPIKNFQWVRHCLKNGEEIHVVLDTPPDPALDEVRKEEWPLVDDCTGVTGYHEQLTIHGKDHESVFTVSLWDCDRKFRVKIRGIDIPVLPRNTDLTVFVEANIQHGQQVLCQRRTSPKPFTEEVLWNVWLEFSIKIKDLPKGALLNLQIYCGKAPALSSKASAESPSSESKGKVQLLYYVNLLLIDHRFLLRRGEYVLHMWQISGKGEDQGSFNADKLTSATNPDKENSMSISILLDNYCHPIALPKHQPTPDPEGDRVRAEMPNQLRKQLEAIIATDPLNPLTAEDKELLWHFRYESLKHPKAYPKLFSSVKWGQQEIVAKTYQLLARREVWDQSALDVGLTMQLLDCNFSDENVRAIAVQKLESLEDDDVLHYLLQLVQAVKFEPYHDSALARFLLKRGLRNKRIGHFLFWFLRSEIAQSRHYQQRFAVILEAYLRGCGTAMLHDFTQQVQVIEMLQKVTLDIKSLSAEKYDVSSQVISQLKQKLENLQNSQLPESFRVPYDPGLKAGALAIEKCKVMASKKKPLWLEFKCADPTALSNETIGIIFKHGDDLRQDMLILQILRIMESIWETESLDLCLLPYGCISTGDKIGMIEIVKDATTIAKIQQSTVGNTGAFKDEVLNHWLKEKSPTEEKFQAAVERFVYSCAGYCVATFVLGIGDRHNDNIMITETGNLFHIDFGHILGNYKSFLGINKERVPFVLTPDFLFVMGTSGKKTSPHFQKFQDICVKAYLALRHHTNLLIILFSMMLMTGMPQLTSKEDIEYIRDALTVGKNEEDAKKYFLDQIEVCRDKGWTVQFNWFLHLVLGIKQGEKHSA

Row | Compound | IC50 (MDA-MB-361) | IC50 [1] | half-life (in vitro; liver microsomes) | IC50 (PC-3) | solubility [2] | IC50 [3] | solubility [4] | IC50 (cells) | half-life [5] | IC50 [6] | IC50 [7] | half-life (in vitro; microsomes) | half-life [8]
1 | O=C(Nc1ccncc1)Nc1ccc(-c2nc(N3CCOCC3)c3nnn(C4CC4)c3n2)cc1 | 31 nM | 0.84 nM | 21 min | 70 nM | – | – | – | – | – | – | – | – | –
2 | CCn1nnc2c(N3CCOCC3)nc(-c3ccc(NC(=O)Nc4cccnc4)cc3)nc21 | – | 0.89 nM | – | – | – | – | – | – | – | – | – | – | –
3 | CC(C)n1nnc2c(N3CCOCC3)nc(-c3ccc(NC(=O)Nc4cccnc4)cc3)nc21 | 39 nM | 0.57 nM | 24 min | 91 nM | 1 µg/mL (≈ 2.18 µM) | – | – | – | – | – | – | – | –
4 | CC(C)n1nnc2c(N3CCOCC3)nc(-c3ccc(NC(=O)Nc4ccncc4)cc3)nc21 | 54 nM | 0.51 nM | > 30 min | 67 nM | – | – | – | – | – | – | – | – | –
5 | CCn1nnc2c(N3CCOCC3)nc(-c3ccc(NC(=O)Nc4ccnc(C)c4)cc3)nc21 | 196 nM | 21 nM | 11 min | 252 nM | 3 µg/mL (≈ 6.53 µM) | – | – | – | – | – | – | – | –
6 | CCn1nnc2c(N3CCOCC3)nc(-c3ccc(NC(=O)Nc4ccc(C(=O)NCCN5CCN(C)CC5)cc4)cc3)nc21 | 24 nM | 1.1 nM | 17 min | 67 nM | 1 µg/mL (≈ 1.63 µM) | 3.2 nM | 100 µg/mL (≈ 163 µM) | 74 nM | 28 min | – | – | – | –
7 | OCc1cccc(-c2nc(N3CCOCC3)c3nnn(C4CCN(Cc5ccccc5)CC4)c3n2)c1 | – | 250 nM | – | 393 nM | – | – | – | – | – | – | – | – | –
8 | CCn1nnc2c(N3CCOCC3)nc(-c3ccc(NC(=O)Nc4ccc(C(=O)OC)cc4)cc3)nc21 | 199 nM | 2.55 nM | 15 min | 285 nM | – | – | – | – | – | – | – | – | –
9 | CC(C)n1nnc2c(N3CCOCC3)nc(-c3ccc(NC(=O)Nc4ccc(CO)cc4)cc3)nc21 | < 30 nM | 0.32 nM | – | 55 nM | – | 3.5 nM | – | – | – | 24.8 nM | 8 nM | – | –
10 | CC(C)n1nnc2c(N3CCOCC3)nc(-c3ccc(NC(=O)Nc4ccc(C(N)=O)cc4)cc3)nc21 | 38 nM | 0.31 nM | 9 min | 57 nM | – | 3.6 nM | – | – | – | – | – | – | –
11 | OCc1cccc(-c2nc(N3CCOCC3)c3ncn(C4CCN(Cc5ccccc5)CC4)c3n2)c1 | – | 634 nM | – | – | – | – | – | – | – | – | – | – | –
12 | Cn1nnc2c(N3CCOCC3)nc(-c3ccc(NC(=O)Nc4cccnc4)cc3)nc21 | 198 nM | 2.95 nM | – | 281 nM | 1 µg/mL (≈ 2.32 µM) | – | – | – | – | – | – | 12 min | –
13 | CCn1nnc2c(N3CCOCC3)nc(-c3ccc(NC(=O)Nc4ccc(C(=O)NCCc5ccccn5)cc4)cc3)nc21 | 36 nM | 1.21 nM | 23 min | 88 nM | 1 µg/mL (≈ 1.69 µM) | 6.8 nM | 4 µg/mL (≈ 6.75 µM) | 65 nM | 19 min | 22 nM | – | – | 16 min
